Measured values from patent US20080039455A1, “PYRAZOLOPYRIMIDINES AND SALTS THEREOF, PHARMACEUTICAL COMPOSITIONS COMPRISING SAME, METHODS OF PREPARING SAME AND USES OF SAME” (priority 2006, published 2008).

Columns and labels:
[1] = biological target: T1, human recombinant ALK1 (GST fused to ALK1 intracellular domain [His142-Gln503]) (Homo sapiens, UniProt P37023); assay: ALK1-Kinase Flashplate-Assay; format: biochemical; settings: 0.5 μM ATP, biotinylated α-casein substrate; read-out: Assay 1 (ALK1-Kinase Flashplate-Assay IC50 class)
T1 construct: GST fused to ALK1 intracellular domain [His142-Gln503]; made in house
T1 sequence (P37023 142-503): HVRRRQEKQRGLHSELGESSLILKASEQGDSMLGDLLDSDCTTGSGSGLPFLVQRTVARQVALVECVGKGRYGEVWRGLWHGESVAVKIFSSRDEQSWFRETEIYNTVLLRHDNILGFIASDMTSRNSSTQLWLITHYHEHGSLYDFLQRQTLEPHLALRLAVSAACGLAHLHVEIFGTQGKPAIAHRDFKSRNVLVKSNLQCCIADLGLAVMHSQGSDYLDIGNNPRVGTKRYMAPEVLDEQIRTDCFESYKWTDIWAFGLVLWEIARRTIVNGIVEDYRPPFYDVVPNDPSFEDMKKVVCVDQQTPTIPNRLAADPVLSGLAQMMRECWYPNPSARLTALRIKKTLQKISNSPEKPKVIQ
Summary of the method: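 Radiometric Flashplate assay at 20 °C: GST-ALK1 intracellular domain (5 ng/well) with 1 μM biotinylated bovine α-casein, 0.5 μM ATP plus [γ-33P]ATP in Tris pH 8.0, 1 mM MnCl2, 1% or 5% DMSO, 60 min. Normalised to no-inhibitor (0%) and 10 mM EDTA (100%); IC50 by 4-parameter fit.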

[2] = biological target: T2, ALK1 (wildtype full-length ALK1 receptor) (Homo sapiens, UniProt P37023); assay: ALK1 transactivation assay (ID1-promoter luciferase reporter in transfected HepG2 cells); format: cell-based; settings: ID1-luc reporter, 18 h, read-out: Assay 2 (ALK1 transactivation assay IC50 class)
T2 construct: expression vector for wildtype full-length ALK1 receptor; expressed in transfected cells; host or cells: HepG2 (ATCC HB-8065), transient transfection with ALK1wt in pcDNA3.1
T2 sequence (P37023 22-503): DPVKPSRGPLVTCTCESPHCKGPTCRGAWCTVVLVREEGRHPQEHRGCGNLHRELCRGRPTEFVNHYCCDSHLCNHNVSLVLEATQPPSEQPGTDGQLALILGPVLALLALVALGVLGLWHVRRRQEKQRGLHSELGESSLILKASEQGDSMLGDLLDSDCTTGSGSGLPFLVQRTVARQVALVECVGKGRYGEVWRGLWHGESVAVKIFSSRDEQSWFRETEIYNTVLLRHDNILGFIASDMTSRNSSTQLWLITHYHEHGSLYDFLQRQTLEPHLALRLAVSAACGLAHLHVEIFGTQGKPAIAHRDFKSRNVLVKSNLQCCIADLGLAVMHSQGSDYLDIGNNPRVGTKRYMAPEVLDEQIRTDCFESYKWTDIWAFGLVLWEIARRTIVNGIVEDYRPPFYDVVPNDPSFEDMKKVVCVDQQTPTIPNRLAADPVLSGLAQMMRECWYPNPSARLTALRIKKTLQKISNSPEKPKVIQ
From the text: Biological Assay 2: ALK1 Transactivation Assay
Herein HepG2 cell-cultures were transiently transfected by known techniques with an ALK1 plasmid (expression vector for wildtype full-length ALK1 receptor) and ID1 reporter plasmid containing 1.3 kB (−1370 to +86) of the ID1-promoter upstream of a luciferase reporter gene. ID1 is a known target gene of ALK1 and therefore gets transactivated by cotransfection with the ALK1 receptor. The specific transactivation is quantified via relative light units (RLU) which are detected in dependence of luciferase expression. Therefore a commercially available detection kit which contains the luciferase substrate luciferine was used.
HepG2 cells, ATCC HB-8065
96well plate polypropylene for compound dilution in DMSO
DMEM Ham's F12 (Biochrom #F4815) with 10% FCS after dialysis, 1% PenStrep and 200 mM Glutamine
steadyliteHTS (Perkin Elmer# 6016981)
Day 1: Seeding of Cells on 96-Well Plates
HepG2 cells are seeded on 96-well plates at a density of 7000 cells/ well in DMEM/HamsF12+5% FCS (+1% P/S, +1% Gln).
Day 2: Transfection of Cells
200 ng DNA: 100 ng ID1-luc (in pGL3basic, Promega)+5 ng ALK1wt (in pcDNA3.1)+95 ng pcDNA3.1 (empty vector, Invitogen)
Fugene and OptiMEM are incubated for 5 min at RT. This mixture is incubated with the DNA for 15 min at RT.
Afterwards, the plate is incubated under shaking conditions at room temperature (RT) for 1 h. After 4 hours at 37° C. the supernatants are drawn off by suction and the wells are replaced with medium (100 μl/well) containing low serum (0.2% FCS) and test substances.
Plates are incubated for further 18 h at 37° C.
100 μl luciferase substrate (steadyliteHTS, Packard) are added per well and plates are measured after 10 minutes in a luminometer (e.g. Viktor luminometer, Perkin Elmer). Luciferase activity is quantified by relative light units (RLU).
Calculation of IC50: ALK1wt−DMSO Control (without ALK1)=100% Substance(+ALK1wt)−DMSO control (without ALK1)=x % IC50=50% inhibition of ALK1 transactivation activity Biological data are presented below: Biological assay 1: ALK1-Kinase Flashplate-Assay

Row | SMILES | IC50 [1] [µM] | IC50 [2] [µM]
1 | COc1cc(-c2cnn3ccc(Nc4ccc(F)cc4)nc23)cc(OC)c1OC [Example 3, (4-fluoro-phenyl)-[3-(3,4,5-trimethoxy-phenyl)-pyrazolo[1,5-a]pyrimidin-5-yl]-amine] | < 1 | < 10
2 | Cc1ccc(Nc2ccn3ncc(-c4cccc(O)c4)c3n2)cc1NS(C)(=O)=O [Example 427, N-{5-[3-(3-Hydroxy-phenyl)-pyrazolo[1,5-a]pyrimidin-5-ylamino]-2-methyl-phenyl}-methanesulfonamide] | < 1 | < 10
3 | COc1cc(-c2cnn3ccc(Nc4ccc(N5CCOCC5)cc4)nc23)cc(OC)c1OC [Example 421, (4-Morpholin-4-yl-phenyl)-[3-(3,4,5-trimethoxy-phenyl)-pyrazolo[1,5-a]pyrimidin-5-yl]-amine] | < 1 | < 10
